This is an account of results in patent US4883801A, “Xanthine derivative pest control agents” (priority 1986, dated 1989).

Data set [1] deals with light organ octopamine-stimulated adenylate cyclase. The conditions noted are these: cited from earlier work.
For data set [2], the system named is hornworm nerve cord PDE (cyclic AMP phosphodiesterase). Put plainly: Inhibition of cyclic AMP phosphodiesterase activity in homogenates of tobacco hornworm nerve cord. The conditions noted are these: for activity of structurally similar compounds tested as described in Example 46: Example 47. It counts as biochemical, Manduca sexta. The protocol: Nerve cord was dissected from 40-60 mm long M. sexta larvae, cleaned, and homogenized (2 mg/ml) in 6 Mm Tris-maleate, pH 7.4. PDE activity was measured (4 min. incubation at 30° C.) in an assay system (0.1 ml) containing 80 mM Tris-maleate, pH 7.4; 6 mM Mg--SO4; 10^-7 M^3 H-cyclic AMP; and tissue homogenate (0.02 ml). Nerve cord was evaluated in the presence and the absence of the xanthine derivative. For purposes of the evaluation, the rate of formation of ^3 H-5' AMP was measured using the technique described in Filburn, C. […] The values shown in FIG. 1D are the mean (±SEM) of three separate experiments.

The test system of data set [3] is Manduca sexta (tobacco hornworm) larvae. Put plainly: Antifeeding test: tomato leaves sprayed with compound, tobacco hornworm larvae. The class given is in vivo.
Data set [4] in a line: Tissue level of theophylline in larvae after feeding on sprayed leaves (immunoenzymatic assay). It counts as in vivo, Manduca sexta. Conditions: 1% spray, three days of feeding; mean ± deviation, two groups of six pooled animals; 4320 min; read-out: internal theophylline concentration of larvae. As for the experimental part:
To determine if the dosage of xanthine derivatives described in experiments 4, 7 and 8-11 and ingested by the larvae (causing pestistatic and pesticidal activity in vivo) were actually absorbed by the animals and were sufficient to inhibit PDE in vitro, additional experiments were carried out in order to estimate tissue levels of xanthine derivative following three days of feeding on various doses of the derivative. Groups of six larvae were placed on leaves treated with vehicle or theophylline spray. After three days, leaf area was recorded and larvae (alive or dead) were rinsed to remove any compound adhering to their cuticle, homogenized whole, centrifuged, and the cell-free supernatant assayed for theophylline content by immunoenzymatic assay (Emit-AAD theophylline assay (Syva Company, Palo Alto, CA.)). […] From mammalian studies, it is known that theophylline penetrates freely into all body compartments (Rall, T. W., supra.). […] This observation tends to rule out the hypothesis wherein adenosine receptors are involved as a mechanism for the antifeeding effects of the xanthine derivatives, since, in vertebrates, xanthine derivatives such as theophylline are competitive adenosine receptor antagonists, but exert such antagonism at much lower concentrations, typically 1-25 micromoles. […]

The next data set relates to adenosine receptor. The conditions noted are these: Bruns et al.; cited from earlier work.
A further data set deals with Culex (mosquito) larvae. Put plainly: Killing of Culex larvae in solution. It counts as in vivo.
The subject of data set [5] is Tribolium castaneum (flower beetle) adults. Put plainly: Tribolium castaneum adults: acute effect and chronic reproduction test. It counts as in vivo.
Data set [6] has as its system Tribolium confusum (flower beetle) adults. Put plainly: Tribolium confusum adults: acute effect and chronic reproduction test. The class given is in vivo.
The test system of data set [7] is larvae of Manduca sexta (tobacco hornworm). Put plainly: Feeding on artificial media containing the test material. It counts as in vivo. The conditions noted are these: concentrations found naturally in undried tea leaves or coffee beans. As for the experimental part: Various concentrations of finely powdered tea leaves or powdered coffee beans were mixed in artificial media which was then plated out in small petri dishes and allowed to harden. […] At concentrations greater than 10% (for coffee) or 3% (for tea), larvae were killed within 24 hours.
The larvae of Manduca sexta were fed on either artificial or natural food. When added to artificial media, caffeine (the major methylxanthine found in tea and coffee) exerted behavioral effects that were qualitatively similar to those of the tea and coffee described above. […] Further, the dried tea leaves, which contain 2-3 times the caffeine content of dried coffee beans, were about 2-3 times as effective as coffee beans in inhibiting weight gain. Further, the concentrations of caffeine which are found naturally in undried tea leaves (0.68-2.1%) or coffee beans (0.8-1.8%) were sufficient to kill most Manduca larvae. Thus, caffeine functions as an endogenous insecticide.

Another data set relates to Callosobrucaus chinensis. The conditions noted are these: concentration of 1.5%; cited from earlier work.
Setting [8] is: highest dose usually a 3% spray solution.
Where [9] appears, read: spray on tomato leaves, calculated from dose-response curves, Manduca sexta 6 per leaf.

Several values for one entry are separate records, joined by “and”; a condition that tells them apart may be missing. Equal values may be shown once.

As for `CNC=Nc1ccc(Cl)cc1C` [DCDM, N-demethylchlordimeform], the “potency as partial agonist relative to octopamine” value in data set [1] is “about six-fold more potent than octopamine”.

`Cn1c(=O)c2[nH]cnc2n(C)c1=O` [Example 15, 1,3-dimethyl-xanthine (theophylline), reference compound]: the “activity of structurally similar compounds tested as described in Example 46” value in [2] is given as “active”. Further, the “inhibition of hornworm nerve cord PDE activity in vitro” value in [2] (at the internal concentration found (4.1 mM)) was more than 80%. Also, in data set [3] (1% spray, three days), the “inhibition of leaf consumption” value was “about 50%”. For the same compound, in data set [3] (setting [8]), the “Vmax (percent inhibition of feeding at the highest dose used)” value was 94%. Moreover, the “EC50 (spray concentration required to cause 50% inhibition of feeding)” value in data set [3] (setting [9]) was 1.5 % (gm/100 ml). Also, in data set [4], the concentration came out at 4100 ± 1100 µM.

As to `CC(C)Cn1c(=O)n(C)c(=O)c2[nH]cnc21` [Example 20, 1-methyl,3-isobutyl-xanthine], the “potency in PDE inhibition relative to theophylline” value in data set [2] is on record as “about 10 fold”. The “potency in blocking adenosine receptors compared with theophylline (in words)” value with adenosine receptor is “roughly equally potent”. In the data set with Culex (mosquito) larvae, the “EC50, killing of larvae” value came out at 0.007%. For the same compound, the “EC50, inhibition of reproduction” value in data set [5] (chronic tests) and in data set [6] (chronic tests) was 0.2% each time. For the same compound, the effect on adults result in [5] (doses up to 3%) and in data set [6] (doses up to 3%) was “unaffected” in each case. Further, the “antifeeding effects in the presence of diltiazem and procaine” value in [3] (Example 13) was “neither reversing the observed antifeeding effects”. For the same compound, in [3] (Example 14), the “pestistatic and pesticidal effects in the presence of D600, verapamil, and nimodipine” value is recorded as “appeared unaffected”. Moreover, the “Vmax (percent inhibition of feeding at the highest dose used)” value in data set [3] (setting [8]) came to 95%. For the same compound, the “potency in disruption of feeding relative to theophylline” value in [3] (in vivo) is “about 10 fold”. In addition, the “EC50 (spray concentration required to cause 50% inhibition of feeding)” value in data set [3] (setting [9]) is listed as 0.3 % (gm/100 ml).

For the compound `Cn1c(=O)c2c(ncn2C)n(C)c1=O` [Example 23, 1,3,7-trimethyl-xanthine (caffeine)], the “activity of structurally similar compounds tested as described in Example 46” value in [2] is recorded as “active”. Also, the “PDE inhibition (in words)” value in [2] (FIG. 1D) is recorded as “about equally potent”. The “weaker than theophylline as an adenosine antagonist” value in the data set with adenosine receptor is 10 fold. In [3] (in vivo), the “EC50 (spray concentration required to cause 50% inhibition of feeding)” value is given as 0.3, the “Vmax (percent inhibition of feeding at the highest dose used)” value is listed as 98 and the “antifeeding effect (in words)” value is reported as “somewhat more potent than theophylline”. The “concentrations sufficient to kill most Manduca larvae” value in data set [7] is 0.68-2.1% and 0.8-1.8%. Moreover, the sterility in the data set with Callosobrucaus chinensis is given as approximately 100%.
